Measurements published in patent US20260221281A1, “PREDICTING PATIENT OUTCOMES RELATED TO PANCREATIC CANCER” (Valar Labs, Inc., priority 2023, published 2026).

Assays:
Format in all cases: in vivo, human
[1] = tested on: resected pancreatic ductal adenocarcinoma (PDAC); assay: DSS after adjuvant gemcitabine in resected PDAC, TCGA test set stratified by VPG signature
Source text: Data from three cohorts of patients were utilized for this experiment: a cohort of 93 patients forming a training data set, a cohort of 46 patients forming a first external data set, and a cohort of 161 patients forming a second external data set. The training data set was identified by selecting PDAC patients who had received adjuvant gemcitabine and no 5-fluorouracil. The training data set included available histopathologic images, data on disease specific survival, and demographic details. From the available histopathologic images, the image identified as the diagnostic slide was used for image analysis by the AI-based pathology platform. Scanned histologic images were analyzed through an AI-based pathology platform in accordance with the systems and methods described herein. The process included tissue segmentation, nuclei segmentation, and finally geometric feature extraction. Tissue was segmented via color-based thresholding to remove empty regions of the slide. Patches of size 2132×2132 were extracted from tissue regions and a validated deep learning model developed was used to segment and classify each nucleus automatically into five classes (i.e., Neoplastic, Connective, No-Neoplastic/Epithelial, Necrotic, Inflammatory). Descriptive morphometric features were then computed for each nucleus. Geometric features were then aggregated first at the patch, and subsequently at the patient level using summary statistics including the mean, standard deviation, skewness and kurtosis to produce the final feature vector for a patient. This feature vector was used as the input to a cox proportional hazards model that used the least absolute shrinkage and selection operator to identify the most correlated features with DSS along with their coefficients on the training set. FIG. 9 provides an illustration of a process to construct a histologic signature associated with disease-specific survival (DSS) after adjuvant gemcitabine. A dataset of scanned whole slide images and the associated clinical data from a cohort of 93 PDAC patients treated with adjuvant gemcitabine in The Cancer Genome Atlas (TCGA) was analyzed. The process to construct a histologic signature includes obtaining a slide 901, digitizing a slide 903, and determining the presence or absence of a histologic biomarker 905. Slides may be obtained in step 901 by resection of pancreatic ductal adenocarcinoma (PDAC). The slides may then then be digitized in step 903 by scanning hematoxylin and eosin-stained resection specimens for whole slide images and subsequently performing digital pathology analysis. […]

[2] = tested on: resected pancreatic ductal adenocarcinoma (PDAC); assay: DSS and time to recurrence after adjuvant gemcitabine in resected PDAC, external cohort stratified by VPG signature; settings: for median time to recurrence: adjuvant gemcitabine-based therapy (n=46)
Source text: The first external data set represented a set of consecutive 24 patients treated with resection and adjuvant gemcitabine. Clinical data was obtained via manual chart review of the electronic medical record. Digitally scanned tissue microarray specimens were used for image analysis. The cores were 1 mm and were obtained from formalin-fixed, paraffin-embedded (FFPE) samples of extra portions of surgical resections. Whole tissue resection specimens were not available for analysis for this study. Scanned histologic images were analyzed through an AI-based pathology platform in accordance with the systems and methods described herein. The process included tissue segmentation, nuclei segmentation, and finally geometric feature extraction. Tissue was segmented via color-based thresholding to remove empty regions of the slide. Patches of size 2132×2132 were extracted from tissue regions and a validated deep learning model developed was used to segment and classify each nucleus automatically into five classes (i.e., Neoplastic, Connective, No-Neoplastic/Epithelial, Necrotic, Inflammatory). Descriptive morphometric features were then computed for each nucleus. Geometric features were then aggregated first at the patch, and subsequently at the patient level using summary statistics including the mean, standard deviation, skewness and kurtosis to produce the final feature vector for a patient. This feature vector was used as the input to a cox proportional hazards model that used the least absolute shrinkage and selection operator to identify the most correlated features with DSS along with their coefficients on the training set. Subsequently, the performance of the signature in stratifying patients was assessed in two external validation cohorts. A first external cohort 1005 included 45 patients who underwent PDAC resection followed by gemcitabine treatment for whom digitally scanned tissue microarrays of tumor specimens were available. A second external cohort 1007 included 161 patients, whose tumors were resected between 1978 and 2008, when adjuvant treatment was not administered as part of the standard of care. To investigate performance beyond the [NT], experiments applying the model in a retrospective cohort of adjuvant-gemcitabine-treated patients and a retrospective cohort of untreated patients were performed. As illustrated in FIGS. 17A-17D, the VPG signature generalizes to external cohorts of gemcitabine-treated patients but not untreated patients.

resected PDAC tumors = assay: DSS of resected PDAC patients receiving gemcitabine, divided into two histological subtypes by the model (Example 3)
Source text: One hundred and thirty-nine (139) whole-slide digitized histological slides corresponding to one hundred and two (102) resected PDAC tumors from a data set were used as a training set. This dataset corresponded to patients that had received either gemcitabine-backbone or 5 FU-backbone chemotherapy as their first-line adjuvant treatment. An AI-based pathology platform such as the one described herein was used to extract nuclei images from tissue regions using segmentation models and compute geometric features of these nuclei. The subsequent features were then correlated with Disease Specific Survival (DSS) in order to construct a signature associated with treatment benefit. The resulting signature was compared against two board certified pathologists using the grade of the digital slides images to classify patients into above or below average DSS buckets.

resected PDAC = assay: DSS and RFS of post-operatively treated resected PDAC patients, external cohort stratified by gemcitabine-response signature (Example 4); settings: external cohort (45 patients)
Source text: Digitized histological hematoxylin and cosin stained tissue microarray blocks corresponding to post-operatively treated resected PDAC patients from 2011-2015 were used in this experiment. Of the 45 patients, 22 were neoadjuvantly treated with either gemcitabine or 5-FIU backbone cytotoxic chemotherapy. Using the histologic images, the AI-based pathology platform extracted nuclei images from tissue regions using segmentation models and computed geometric features of these nuclei. Patients were stratified by the signature previously associated with gemcitabine response in a dataset into low and high risk groups, and Disease Specific Survival (DSS) and Recurrence Free Survival (RFS) was compared between the stratified groups via Kaplan Meier estimators and log-rank test.

## Nc1ccn([C@@H]2O[C@H](CO)[C@@H](O)C2(F)F)c(=O)n1 [gemcitabine]
[1]; TCGA validation subset (47 patients), negative VPG signature
  median DSS: 16.0 months
[1]; TCGA validation subset (47 patients), positive VPG signature
  median DSS: 67.9 months
[1]; sub-group of 39 validation patients with RNAseq data, negative VPG signature
  median DSS: 16.0 months
[1]; sub-group of 39 validation patients with RNAseq data, positive VPG signature
  median DSS: 67.9 months
[2]; negative VPG signature
  median time to recurrence: 9.1 months
[2]; positive VPG signature
  median time to recurrence: 22.6 months
[2]; adjuvant gemcitabine-based therapy, external cohort (n=46), negative VPG signature
  median DSS: 16 months
[2]; adjuvant gemcitabine-based therapy, external cohort (n=46), positive VPG signature
  median DSS: 43.1 months
[2]; external cohort, no therapy prior to surgery (n=24), negative VPG signature
  median DSS: 12.9 months
[2]; external cohort, no therapy prior to surgery (n=24), positive VPG signature
  median DSS: 40.2 months
Resected PDAC tumors; first histological subtype (threshold: average expected lifetime)
  median DSS: 586 days
Resected PDAC tumors; second histological subtype (threshold: average expected lifetime)
  median DSS: 394 days
Resected PDAC; high risk group
  median DSS: 16 months
  median RFS: 9.1 months
Resected PDAC; low risk group
  median DSS: 43 months
  median RFS: 22.6 months
